Measurements: patent publication US20240150377A1, “MODULATORS OF CYSTIC FIBROSIS TRANSMEMBRANE CONDUCTANCE REGULATOR” (VERTEX PHARMACEUTICALS INCORPORATED, priority 2020, published 2024)
pEC50: −log10 of the molar value. Read-outs that look alike come from different tables or passages of the source.

Target: CFTR (Homo sapiens, UniProt P13569)
Assay: Membrane potential dye, Enteroid Assay A
Type: cell-based
Settings: for Ent. A Max Activity: chloride transport as % of triple combination control (Enteroid Assay A); for pEC50: human enteroid cells, 18-24 hours, acute 10 μM forskolin and 300 nM ivacaftor, read-out: Ent. A EC50
Method in brief: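 Human intestinal enteroids incubated 18-24 h at 37 °C with test compound, then loaded with 20 μM methyl oxonol (with CaCC inhibitors). Chloride transport triggered in chloride-free buffer with 10 μM forskolin, 100 μM IBMX, 300 nM Compound III; fluorescence read 15 min, expressed as % of a triple-combination corrector/potentiator control.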

Chain of CFTR (P13569 with tags, fused parts or gaps DEL508-508): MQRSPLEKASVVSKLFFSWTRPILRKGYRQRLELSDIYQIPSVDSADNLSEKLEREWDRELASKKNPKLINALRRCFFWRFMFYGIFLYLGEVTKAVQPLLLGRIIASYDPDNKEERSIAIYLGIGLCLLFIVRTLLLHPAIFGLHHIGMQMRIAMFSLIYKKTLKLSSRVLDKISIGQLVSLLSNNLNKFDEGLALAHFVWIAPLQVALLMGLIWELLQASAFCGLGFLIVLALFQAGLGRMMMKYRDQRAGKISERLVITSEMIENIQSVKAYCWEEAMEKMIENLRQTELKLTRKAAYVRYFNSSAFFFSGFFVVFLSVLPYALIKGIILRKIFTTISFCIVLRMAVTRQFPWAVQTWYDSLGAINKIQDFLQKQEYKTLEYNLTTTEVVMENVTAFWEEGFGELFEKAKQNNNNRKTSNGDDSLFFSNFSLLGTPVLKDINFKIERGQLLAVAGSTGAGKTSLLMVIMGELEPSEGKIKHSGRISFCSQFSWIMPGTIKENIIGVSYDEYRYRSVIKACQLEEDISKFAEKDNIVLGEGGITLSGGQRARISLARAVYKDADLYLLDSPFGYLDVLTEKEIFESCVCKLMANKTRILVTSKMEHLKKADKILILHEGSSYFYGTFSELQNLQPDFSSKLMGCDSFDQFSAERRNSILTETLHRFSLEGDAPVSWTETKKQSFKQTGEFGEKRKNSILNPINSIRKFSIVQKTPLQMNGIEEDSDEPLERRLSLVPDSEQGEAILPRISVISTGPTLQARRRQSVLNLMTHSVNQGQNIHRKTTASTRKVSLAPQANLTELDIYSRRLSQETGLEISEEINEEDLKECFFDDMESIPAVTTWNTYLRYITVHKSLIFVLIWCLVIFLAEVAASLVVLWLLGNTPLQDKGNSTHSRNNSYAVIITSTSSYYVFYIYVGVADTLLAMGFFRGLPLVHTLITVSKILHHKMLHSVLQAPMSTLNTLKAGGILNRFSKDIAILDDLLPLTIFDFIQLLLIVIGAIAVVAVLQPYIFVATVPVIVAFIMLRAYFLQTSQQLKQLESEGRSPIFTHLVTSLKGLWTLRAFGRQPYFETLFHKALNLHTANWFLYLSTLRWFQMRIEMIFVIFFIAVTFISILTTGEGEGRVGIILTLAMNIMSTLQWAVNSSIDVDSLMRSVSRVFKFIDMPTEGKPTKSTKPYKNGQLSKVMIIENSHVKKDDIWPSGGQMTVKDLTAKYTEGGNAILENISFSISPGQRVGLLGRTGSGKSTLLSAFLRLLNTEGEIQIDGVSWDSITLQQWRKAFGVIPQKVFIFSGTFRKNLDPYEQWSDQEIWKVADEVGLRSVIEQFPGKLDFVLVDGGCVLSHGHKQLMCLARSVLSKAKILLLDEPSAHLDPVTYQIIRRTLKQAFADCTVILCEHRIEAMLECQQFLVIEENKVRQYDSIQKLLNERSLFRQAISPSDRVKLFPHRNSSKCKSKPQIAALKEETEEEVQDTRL

| SMILES | Ent. A Max Activity (Table 7) | pEC50 (Table 7) | Ent. A Max Activity (Table 6) | pEC50 (Table 6) |
| --- | --- | --- | --- | --- |
| Cc1cccc(C)c1-c1cc2nc(n1)NS(=O)(=O)c1cccc(c1)C(=O)N(Cc1ccc(N3CCC(C(F)(F)F)CC3)nc1)[C@H](CC(C)C)CO2 [Compound 969] | ++ (++ is 30-60%) | > 6.00 | – | – |
| COCC1CCN(c2ccc(CN3C(=O)c4cccc(c4)S(=O)(=O)Nc4nc(cc(-c5c(C)cccc5C)n4)OC[C@H]3CC(C)C)cn2)CC1 [Compound 970] | ++ (++ is 30-60%) | > 6.00 | – | – |
| COC1CCN(c2ccc(CN3C(=O)c4cccc(c4)S(=O)(=O)Nc4nc(cc(-c5c(C)cccc5C)n4)OC[C@H]3CC(C)C)cn2)CC1 [Compound 971] | +++ (+++ is >60%) | > 6.00 | – | – |
| Cc1cccc(C)c1-c1cc2nc(n1)NS(=O)(=O)c1cccc(c1)C(=O)N(Cc1ccc(N3CCC(C#N)CC3)nc1)[C@H](CC(C)C)CO2 [Compound 972] | +++ (+++ is >60%) | > 6.00 | – | – |
| Cc1cccc(C)c1-c1cc2nc(n1)NS(=O)(=O)c1cccc(c1)C(=O)N(Cc1ccc(N3CCC(F)CC3)nc1)[C@H](CC(C)C)CO2 [Compound 973] | +++ (+++ is >60%) | > 6.00 | – | – |
| Cc1cccc(C)c1-c1cc2nc(n1)NS(=O)(=O)c1cccc(c1)C(=O)N(Cc1ccc(N3CCOCC3)nc1)[C@H](CC(C)C)CO2 [Compound 976] | – | – | +++ (+++ is >60%) | > 6.00 |
| Cc1cccc(C)c1-c1cc2nc(n1)NS(=O)(=O)c1cccc(c1)C(=O)N(Cc1ccncc1)CCO2 [Compound 977] | – | – | +++ (+++ is >60%) | 4.52 to 5.52 |
| Cc1cccc(C)c1-c1cc2nc(n1)NS(=O)(=O)c1cccc(c1)C(=O)N(Cc1ccccc1)CCO2 [Compound 978] | – | – | +++ (+++ is >60%) | > 6.00 |
| Cc1cccc(C)c1-c1cc2nc(n1)NS(=O)(=O)c1cccc(c1)C(=O)N(C)CCO2 [Compound 979] | – | – | + (+ is <30%) | – |
| Cc1cccc(C)c1-c1cc2nc(n1)NS(=O)(=O)c1cccc(c1)C(=O)N(Cc1ccc(C(=O)N(C)C)nc1)[C@H](CC(C)C)CO2 [Compound 981] | +++ (+++ is >60%) | > 6.00 | – | – |
| Cc1cccc(C)c1-c1cc2nc(n1)NS(=O)(=O)c1cccc(c1)C(=O)N(CCC1CCOCC1)[C@H](CC(F)(F)F)CO2 [Compound 982] | ++ (++ is 30-60%) | 5.52 to 6.00 | – | – |
| Cc1cccc(C)c1-c1cc2nc(n1)NS(=O)(=O)c1cccc(c1)C(=O)N(CCC1CCOCC1)[C@H](CC(F)(F)F)CO2 [Compound 983] | ++ (++ is 30-60%) | > 6.00 | – | – |
| Cc1cccc(C)c1-c1cc2nc(n1)NS(=O)(=O)c1cccc(c1)C(=O)N(CCC(C)(C)C)[C@H](CC(F)(F)F)CO2 [Compound 984] | ++ (++ is 30-60%) | 5.52 to 6.00 | – | – |
| Cc1cccc(C)c1-c1cc2nc(n1)NS(=O)(=O)c1cccc(c1)C(=O)N(CCC(C)(C)C)[C@H](CC(F)(F)F)CO2 [Compound 985] | ++ (++ is 30-60%) | > 6.00 | – | – |
| COc1ccc(CN2C(=O)c3cccc(c3)S(=O)(=O)Nc3nc(cc(-c4c(C)cccc4C)n3)OC[C@H]2C)cc1 [Compound 986] | ++ (++ is 30-60%) | 5.52 to 6.00 | – | – |
| Cc1cccc(C)c1-c1cc2nc(n1)NS(=O)(=O)c1cccc(c1)C(=O)N(CCC(C)(C)C)[C@H](C)CO2 [Compound 987] | + (+ is <30%) | > 6.00 | – | – |
| Cc1cccc(C)c1-c1cc2nc(n1)NS(=O)(=O)c1cccc(c1)C(=O)N(CCC1CCOCC1)[C@H](C)CO2 [Compound 988] | + (+ is <30%) | 4.52 to 5.52 | – | – |
| Cc1cccc(C)c1-c1cc2nc(n1)NS(=O)(=O)c1cccc(c1)C(=O)N(Cc1ccc[nH]c1=O)[C@H](CC(C)C)CO2 [Compound 989] | – | – | +++ (+++ is >60%) | 5.52 to 6.00 |
| CCC(CC)CN1C(=O)c2cccc(c2)S(=O)(=O)Nc2nc(cc(-c3c(C)cccc3C)n2)OC[C@H]1CC(C)C [Compound 990] | – | – | +++ (+++ is >60%) | > 6.00 |
| Cc1cccc(C)c1-c1cc2nc(n1)NS(=O)(=O)c1cccc(c1)C(=O)N(C)[C@H](CC(C)C)[C@H](C)O2 [Compound 991] | – | – | +++ (+++ is >60%) | > 6.00 |
| Cc1cccc(C)c1-c1cc2nc(n1)NS(=O)(=O)c1cccc(c1)C(=O)N(C)[C@H](c1ccc(C(C)(C)C)cc1)CO2 [Compound 1010] | ++ (++ is 30-60%) | > 6.00 | – | – |
| Cc1cccc(C)c1-c1cc2nc(n1)NS(=O)(=O)c1cccc(c1)C(=O)N(C)[C@H](c1ccc(C(C)(C)C)cc1)CO2 [Compound 1011] | +++ (+++ is >60%) | > 6.00 | – | – |
| C=CC1CN(CCC(C)C)C(=O)c2cccc(c2)S(=O)(=O)Nc2nc(cc(-c3c(C)cccc3C)n2)O1 (stereo not drawn) [Compound 1012] | – | – | ++ (++ is 30-60%) | > 6.00 |
| Cc1cccc(C)c1-c1cc2nc(n1)NS(=O)(=O)c1cccc(c1)C(=O)N(C)CC(CN(C)CCC(C)(C)C)O2 (stereo not drawn) [Compound 1014] | – | – | +++ (+++ is >60%) | 4.52 to 5.52 |

| SMILES | Ent. A Max Activity (Table 7) | pEC50 (Table 7) | Ent. A Max Activity (Table 6) | pEC50 (Table 6) |
| --- | --- | --- | --- | --- |
| Cc1cccc(C)c1-c1cc2nc(n1)NS(=O)(=O)c1cccc(c1)C(=O)N(C)CC(CN1C3CCC[C@H]1CC3)O2 (stereo partly drawn) [Compound 1015] | – | – | + (+ is <30%) | – |
| CNCCNCC1CN(C)C(=O)c2cccc(c2)S(=O)(=O)Nc2nc(cc(-c3c(C)cccc3C)n2)O1 (stereo not drawn) [Compound 1016] | – | – | + (+ is <30%) | – |
| Cc1cccc(C)c1-c1cc2nc(n1)NS(=O)(=O)c1cccc(c1)C(=O)N(C)C[C@H](CNCCC(C)(C)C)O2 [Compound 1017] | – | – | + (+ is <30%) | – |
| Cc1cccc(C)c1-c1cc2nc(n1)NS(=O)(=O)c1cccc(c1)C(=O)N(C)C[C@@H](CNCCC(C)(C)C)O2 [Compound 1018] | – | – | + (+ is <30%) | – |
| Cc1cccc(C)c1-c1cc2nc(n1)NS(=O)(=O)c1cccc(c1)C(=O)N(C)CC(CNCCC(C)(C)C)O2 (stereo not drawn) [Compound 1019] | – | – | + (+ is <30%) | – |
| Cc1cccc(C)c1-c1cc2nc(n1)NS(=O)(=O)c1cccc(c1)CN(CCC(C)CC(C)(C)C)[C@H](CC(C)C)CO2 (stereo partly drawn) [Compound 1022] | ++ (++ is 30-60%) | > 6.00 | – | – |
| CC(=O)N1Cc2cccc(c2)S(=O)(=O)Nc2nc(cc(-c3c(C)cccc3C)n2)OC[C@H]1CC(C)C [Compound 1025] | + (+ is <30%) | – | – | – |
| Cc1cccc(C)c1-c1cc2nc(n1)NS(=O)(=O)c1cccc(c1)CN(Cc1cc(C)c3[nH]ncc3c1)[C@H](CC(C)C)CO2 [Compound 1027] | +++ (+++ is >60%) | > 6.00 | – | – |
| Cc1cccc(C)c1-c1cc2nc(n1)NS(=O)(=O)c1cccc(c1)CN(Cc1cccnc1OCC1CC1)[C@H](CC(C)C)CO2 [Compound 1028] | +++ (+++ is >60%) | > 6.00 | – | – |
| Cc1cccc(C)c1-c1cc2nc(n1)NS(=O)(=O)c1cccc(c1)CN(Cc1ccc(Oc3ccccc3)cc1)[C@H](CC(C)C)CO2 [Compound 1030] | ++ (++ is 30-60%) | > 6.00 | – | – |
| COc1ccc(CN2Cc3cccc(c3)S(=O)(=O)Nc3nc(cc(-c4c(C)cccc4C)n3)OC[C@H]2CC(C)C)cc1C(F)(F)F [Compound 1031] | ++ (++ is 30-60%) | > 6.00 | – | – |
| Cc1cccc(C)c1-c1cc2nc(n1)NS(=O)(=O)c1cccc(c1)CN(Cc1ccc3c(c1)OC(F)(F)O3)[C@H](CC(C)C)CO2 [Compound 1032] | ++ (++ is 30-60%) | > 6.00 | – | – |
| Cc1cccc(C)c1-c1cc2nc(n1)NS(=O)(=O)c1cccc(c1)CN(Cc1cnc(C3CCCCC3)nc1)[C@H](CC(C)C)CO2 [Compound 1033] | ++ (++ is 30-60%) | > 6.00 | – | – |
| Cc1cccc(C)c1-c1cc2nc(n1)NS(=O)(=O)c1cccc(c1)CN(Cc1ccccc1-c1ccccc1)[C@H](CC(C)C)CO2 [Compound 1034] | ++ (++ is 30-60%) | > 6.00 | – | – |
| CCc1nccc(CN2Cc3cccc(c3)S(=O)(=O)Nc3nc(cc(-c4c(C)cccc4C)n3)OC[C@H]2CC(C)C)n1 [Compound 1035] | ++ (++ is 30-60%) | > 6.00 | – | – |
| Cc1cccc(C)c1-c1cc2nc(n1)NS(=O)(=O)c1cccc(c1)CN(Cc1ccccc1OC(C)C)[C@H](CC(C)C)CO2 [Compound 1036] | ++ (++ is 30-60%) | > 6.00 | – | – |
| Cc1cccc(C)c1-c1cc2nc(n1)NS(=O)(=O)c1cccc(c1)CN(Cc1ccccc1OCc1ccccc1)[C@H](CC(C)C)CO2 [Compound 1037] | ++ (++ is 30-60%) | > 6.00 | – | – |
| CCOc1cc(CN2Cc3cccc(c3)S(=O)(=O)Nc3nc(cc(-c4c(C)cccc4C)n3)OC[C@H]2CC(C)C)ccc1OC [Compound 1038] | ++ (++ is 30-60%) | > 6.00 | – | – |
| Cc1cccc(C)c1-c1cc2nc(n1)NS(=O)(=O)c1cccc(c1)CN(CCn1c(=O)oc3ccccc31)[C@H](CC(C)C)CO2 [Compound 1039] | ++ (++ is 30-60%) | > 6.00 | – | – |
| Cc1cccc(C)c1-c1cc2nc(n1)NS(=O)(=O)c1cccc(c1)CN(CCc1ccccc1)[C@H](CC(C)C)CO2 [Compound 1040] | ++ (++ is 30-60%) | > 6.00 | – | – |
| Cc1cccc(C)c1-c1cc2nc(n1)NS(=O)(=O)c1cccc(c1)CN(CC1CCOCC1)[C@H](CC(C)C)CO2 [Compound 1041] | +++ (+++ is >60%) | > 6.00 | – | – |
| COCCN1Cc2cccc(c2)S(=O)(=O)Nc2nc(cc(-c3c(C)cccc3C)n2)OC[C@H]1CC(C)C [Compound 1042] | + + | > 6.00 | – | – |
| Cc1cccc(C)c1-c1cc2nc(n1)NS(=O)(=O)c1cccc(c1)CN(Cc1ccccc1)[C@H](CC(C)C)CO2 [Compound 1044] | – | – | ++ (++ is 30-60%) | > 6.00 |
